The source of these data is US20090162459A1, “Combination Therapy for Treatment of Patients with Neurological Disorders and Cerebral Infarction” (priority 2006, published 2009).

One series deals with blood coagulation. The series is described as follows: Phase IV open-label study NeuroAid®/aspirin interaction in healthy volunteers, 5 coagulation tests. It is filed as in vivo, human. To be noted: 11 healthy volunteers per group. As for the experimental part: Blood samples of the subjects were collected before they received treatment and 2 and 8 hours after treatment initiation.

Another series relates to acute ischaemic stroke. To be noted: secondary stroke prevention in cerebral stroke patients, aspirin/other antiplatelets/anticoagulant; cited from earlier work.
The subject of a further series is Acute Ischemic Stroke. Conditions: cited from earlier work.
The mark [1] stands for this setting: clinical stroke trials, versus placebo.

With `CC(=O)Oc1ccccc1C(=O)O` [Aspirin alone, Acetylsalicylic Acid], in the series with blood coagulation (T + 2 hours), the “Activated Partial Prothrombine Time, Mean” value turned out to be 39.0 s; the D-Dimer, Mean was found to be 0.16 µg/mL; the “Fibrinogen, Mean” value stood at 3.2 G/L; the “Platelet Aggregation, Mean” value is 62.87 Percentage. Further, in the series on blood coagulation (T + 8 hours), the D-Dimer, Mean was 0.16 µg/mL; the “Fibrinogen, Mean” value worked out at 3.0 G/L; the “Platelet Aggregation, Mean” value amounted to 48.01 Percentage. Moreover, in the series on blood coagulation (T = 0, before treatment), the “Activated Partial Prothrombine Time, Mean” value came to 38.8 s; the D-Dimer, Mean was found to be 0.16 µg/mL; the “Fibrinogen, Mean” value amounted to 3.2 G/L; the “Platelet Aggregation, Mean” value is recorded as 62.82 Percentage. Moreover, the “Quick Prothrombine Time, Mean” value with blood coagulation (T = 0, before treatment) came to 12.9 s. Further, the improvement effect result in the series on acute ischaemic stroke was “about 1%”.
As to `C[N+](C)(C)CCOP(=O)(O)OP(=O)([O-])OC[C@H]1O[C@@H](n2ccc(N)nc2=O)[C@H](O)[C@@H]1O` [Citicoline, CDP-choline], in the series with Acute Ischemic Stroke (setting [1]), the “cognitive function as measured by the Mini Mental Status Examination” value was “significant difference between the groups, favoring citicoline treatment”; the “functional outcome as measured by the Barthel Index and Rankin scale” value is listed as “significant difference between the groups, favoring citicoline treatment”; the “neurologic evaluation as measured by the NIH stroke scale” value is “significant difference between the groups, favoring citicoline treatment”. In addition, in the series with Acute Ischemic Stroke (oral Citicoline, acute ischemic stroke, Davalos et al. 2002), the “complete recovery at 3 months” value was “improve complete recovery at 3 months”.
